Columns and labels:
[1] = target: Dual specificity testis-specific protein kinase 1 (Homo sapiens) (UniProt Q15569); conditions: at 10 µM
[2] = target: RAC-beta serine/threonine-protein kinase (Homo sapiens) (UniProt P31751); experiment: Selectivity interaction (KinomeScan (DiscoverX)) EUB0001049a AKT2; conditions: at 1 µM
D(2) dopamine receptor = D(2) dopamine receptor (Homo sapiens, UniProt P14416); experiment: Selectivity interaction (Panel of kinases, GPCRs, ion channels and transporters (enzymatic assay)) EUB0000223bCl DRD2
[3] = target: Serine/threonine-protein kinase SIK2 (Homo sapiens) (UniProt Q9H0K1); experiment: Selectivity interaction (KinomeScan (DiscoverX)) EUB0000045b SIK2
[4] = target: T1, Serine/threonine-protein kinase D2 (Homo sapiens) (UniProt Q9BZL6); experiment: Selectivity interaction (KinomeScan (DiscoverX)) EUB0000092b PRKD2; conditions: at 10 µM
T1 sequence (whole entry): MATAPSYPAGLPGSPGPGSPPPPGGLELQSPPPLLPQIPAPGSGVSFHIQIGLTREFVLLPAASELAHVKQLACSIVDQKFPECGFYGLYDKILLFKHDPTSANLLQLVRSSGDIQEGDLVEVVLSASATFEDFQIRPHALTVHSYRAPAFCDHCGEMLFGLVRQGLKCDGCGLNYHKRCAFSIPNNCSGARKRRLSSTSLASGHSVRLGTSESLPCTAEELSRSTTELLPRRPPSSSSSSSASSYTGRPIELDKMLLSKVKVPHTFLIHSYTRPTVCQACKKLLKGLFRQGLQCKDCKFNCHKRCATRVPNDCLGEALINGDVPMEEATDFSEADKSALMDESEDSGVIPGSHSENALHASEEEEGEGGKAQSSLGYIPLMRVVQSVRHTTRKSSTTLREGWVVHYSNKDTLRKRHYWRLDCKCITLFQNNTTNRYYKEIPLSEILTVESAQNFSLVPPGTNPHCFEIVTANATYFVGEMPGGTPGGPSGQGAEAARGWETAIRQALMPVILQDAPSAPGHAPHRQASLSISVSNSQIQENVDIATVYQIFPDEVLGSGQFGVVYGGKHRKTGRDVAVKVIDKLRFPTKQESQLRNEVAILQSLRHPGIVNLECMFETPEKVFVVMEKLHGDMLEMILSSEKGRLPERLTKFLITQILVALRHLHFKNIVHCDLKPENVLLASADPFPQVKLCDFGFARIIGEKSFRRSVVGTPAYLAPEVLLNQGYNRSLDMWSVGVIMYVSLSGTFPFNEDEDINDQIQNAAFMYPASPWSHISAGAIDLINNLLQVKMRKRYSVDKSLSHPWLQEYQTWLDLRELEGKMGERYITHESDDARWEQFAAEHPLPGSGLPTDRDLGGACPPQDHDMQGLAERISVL

[5] = target: T2, Mitogen-activated protein kinase kinase kinase 3 (Homo sapiens) (UniProt Q99759); experiment: Selectivity interaction (KinomeScan (DiscoverX)) EUB0000092b MAP3K3; conditions: at 10 µM
T2 sequence (whole entry): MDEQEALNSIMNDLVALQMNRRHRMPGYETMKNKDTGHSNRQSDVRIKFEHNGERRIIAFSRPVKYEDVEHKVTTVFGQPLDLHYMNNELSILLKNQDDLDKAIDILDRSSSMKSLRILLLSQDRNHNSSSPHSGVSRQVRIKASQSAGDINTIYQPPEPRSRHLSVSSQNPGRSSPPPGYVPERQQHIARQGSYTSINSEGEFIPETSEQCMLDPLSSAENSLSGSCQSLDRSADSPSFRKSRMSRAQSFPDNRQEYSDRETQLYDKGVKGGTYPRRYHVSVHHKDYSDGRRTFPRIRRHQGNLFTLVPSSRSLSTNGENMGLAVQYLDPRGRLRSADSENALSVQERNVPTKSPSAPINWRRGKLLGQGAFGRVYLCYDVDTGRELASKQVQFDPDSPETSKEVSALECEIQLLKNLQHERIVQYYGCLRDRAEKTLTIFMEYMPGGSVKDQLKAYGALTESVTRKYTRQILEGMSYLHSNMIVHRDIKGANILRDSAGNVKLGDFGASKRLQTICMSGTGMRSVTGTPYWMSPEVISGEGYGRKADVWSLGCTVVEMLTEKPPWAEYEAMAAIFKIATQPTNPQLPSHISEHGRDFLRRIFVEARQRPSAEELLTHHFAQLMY

[6] = target: Cyclin-dependent kinase 18 (Homo sapiens) (UniProt Q07002); experiment: Selectivity interaction (KinomeScan (DiscoverX)) EUB0000618a CDK18; conditions: at 10 µM
[7] = target: T3, NUAK family SNF1-like kinase 2 (Homo sapiens) (UniProt Q9H093); experiment: Selectivity interaction (ActivX KiNativ screen (ex vivo kinase selectivity in human PBMCs)) EUB0001619a NUAK2; type: cell-based; conditions: PBMC, at 1 µM
T3 sequence (whole entry): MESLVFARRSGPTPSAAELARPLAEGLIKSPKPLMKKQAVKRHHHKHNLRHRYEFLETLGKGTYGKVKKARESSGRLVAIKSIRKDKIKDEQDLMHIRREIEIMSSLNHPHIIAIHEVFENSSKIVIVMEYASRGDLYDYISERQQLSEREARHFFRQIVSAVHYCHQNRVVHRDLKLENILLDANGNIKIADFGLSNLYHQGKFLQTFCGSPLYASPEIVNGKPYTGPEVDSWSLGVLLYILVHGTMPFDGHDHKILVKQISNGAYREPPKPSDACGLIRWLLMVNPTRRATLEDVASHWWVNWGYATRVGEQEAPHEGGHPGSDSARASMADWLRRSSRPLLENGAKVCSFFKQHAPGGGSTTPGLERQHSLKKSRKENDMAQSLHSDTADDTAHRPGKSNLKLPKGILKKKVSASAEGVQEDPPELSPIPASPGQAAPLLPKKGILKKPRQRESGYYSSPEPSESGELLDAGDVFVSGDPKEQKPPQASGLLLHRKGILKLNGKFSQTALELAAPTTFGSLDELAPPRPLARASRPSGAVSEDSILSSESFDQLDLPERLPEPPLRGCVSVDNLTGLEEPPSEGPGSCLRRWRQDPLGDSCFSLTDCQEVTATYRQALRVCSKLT

Sequence of Serine/threonine-protein kinase SIK2 (Homo sapiens) (Q9H0K1 whole entry, looked up): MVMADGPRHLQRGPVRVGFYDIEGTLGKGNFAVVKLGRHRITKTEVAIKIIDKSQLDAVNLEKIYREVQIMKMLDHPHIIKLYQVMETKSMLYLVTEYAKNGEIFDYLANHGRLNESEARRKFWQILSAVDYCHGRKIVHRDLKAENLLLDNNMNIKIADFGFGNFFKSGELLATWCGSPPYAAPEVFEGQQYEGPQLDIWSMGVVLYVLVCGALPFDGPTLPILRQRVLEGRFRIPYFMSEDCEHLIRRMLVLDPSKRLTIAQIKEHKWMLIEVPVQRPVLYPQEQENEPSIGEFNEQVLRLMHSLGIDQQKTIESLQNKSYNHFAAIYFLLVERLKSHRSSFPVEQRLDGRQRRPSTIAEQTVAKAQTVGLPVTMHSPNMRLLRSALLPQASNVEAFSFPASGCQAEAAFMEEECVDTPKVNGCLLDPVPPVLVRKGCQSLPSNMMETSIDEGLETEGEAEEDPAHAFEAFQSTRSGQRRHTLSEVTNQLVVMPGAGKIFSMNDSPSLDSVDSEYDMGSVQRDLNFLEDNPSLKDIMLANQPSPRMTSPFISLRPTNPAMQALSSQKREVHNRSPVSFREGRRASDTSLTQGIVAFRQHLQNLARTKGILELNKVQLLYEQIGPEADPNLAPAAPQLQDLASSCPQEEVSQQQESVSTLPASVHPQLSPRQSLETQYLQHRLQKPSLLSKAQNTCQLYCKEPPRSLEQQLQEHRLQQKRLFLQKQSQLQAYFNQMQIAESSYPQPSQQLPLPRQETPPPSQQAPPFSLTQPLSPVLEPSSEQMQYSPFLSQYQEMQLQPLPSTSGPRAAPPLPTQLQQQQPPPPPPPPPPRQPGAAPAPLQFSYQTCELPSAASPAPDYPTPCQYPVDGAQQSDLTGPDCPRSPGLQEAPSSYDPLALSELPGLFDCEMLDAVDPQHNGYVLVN
Sequence of RAC-beta serine/threonine-protein kinase (Homo sapiens) (P31751 whole entry): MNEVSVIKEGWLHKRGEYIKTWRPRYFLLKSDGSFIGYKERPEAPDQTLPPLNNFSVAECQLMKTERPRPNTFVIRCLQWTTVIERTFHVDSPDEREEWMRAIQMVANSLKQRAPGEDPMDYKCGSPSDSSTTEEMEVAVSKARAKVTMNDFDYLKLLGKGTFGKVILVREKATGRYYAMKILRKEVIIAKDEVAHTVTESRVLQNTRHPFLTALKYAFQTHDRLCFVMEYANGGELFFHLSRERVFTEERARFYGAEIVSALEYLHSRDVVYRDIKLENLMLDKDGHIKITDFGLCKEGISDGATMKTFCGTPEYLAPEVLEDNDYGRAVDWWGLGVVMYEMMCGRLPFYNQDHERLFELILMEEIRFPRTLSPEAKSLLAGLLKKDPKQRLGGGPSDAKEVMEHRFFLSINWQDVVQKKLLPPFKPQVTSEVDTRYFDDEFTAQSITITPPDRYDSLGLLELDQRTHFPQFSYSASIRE
Sequence of Dual specificity testis-specific protein kinase 1 (Homo sapiens) (Q15569 whole entry, looked up): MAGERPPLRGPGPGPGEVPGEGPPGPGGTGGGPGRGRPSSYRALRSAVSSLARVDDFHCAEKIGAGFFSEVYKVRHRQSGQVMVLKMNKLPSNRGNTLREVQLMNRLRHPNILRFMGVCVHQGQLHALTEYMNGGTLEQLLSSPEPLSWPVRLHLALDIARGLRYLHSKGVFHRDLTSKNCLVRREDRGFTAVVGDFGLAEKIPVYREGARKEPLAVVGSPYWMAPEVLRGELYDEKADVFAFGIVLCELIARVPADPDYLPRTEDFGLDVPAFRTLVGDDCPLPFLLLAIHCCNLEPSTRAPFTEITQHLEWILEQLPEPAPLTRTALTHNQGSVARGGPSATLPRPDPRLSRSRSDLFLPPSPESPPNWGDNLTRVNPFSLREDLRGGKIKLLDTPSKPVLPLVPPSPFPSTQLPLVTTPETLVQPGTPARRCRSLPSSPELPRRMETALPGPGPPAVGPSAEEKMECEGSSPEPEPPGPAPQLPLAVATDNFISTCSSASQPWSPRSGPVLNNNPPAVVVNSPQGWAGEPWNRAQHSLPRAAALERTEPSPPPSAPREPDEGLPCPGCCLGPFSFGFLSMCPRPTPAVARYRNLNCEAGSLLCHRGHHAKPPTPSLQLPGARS
Sequence of Cyclin-dependent kinase 18 (Homo sapiens) (Q07002 whole entry): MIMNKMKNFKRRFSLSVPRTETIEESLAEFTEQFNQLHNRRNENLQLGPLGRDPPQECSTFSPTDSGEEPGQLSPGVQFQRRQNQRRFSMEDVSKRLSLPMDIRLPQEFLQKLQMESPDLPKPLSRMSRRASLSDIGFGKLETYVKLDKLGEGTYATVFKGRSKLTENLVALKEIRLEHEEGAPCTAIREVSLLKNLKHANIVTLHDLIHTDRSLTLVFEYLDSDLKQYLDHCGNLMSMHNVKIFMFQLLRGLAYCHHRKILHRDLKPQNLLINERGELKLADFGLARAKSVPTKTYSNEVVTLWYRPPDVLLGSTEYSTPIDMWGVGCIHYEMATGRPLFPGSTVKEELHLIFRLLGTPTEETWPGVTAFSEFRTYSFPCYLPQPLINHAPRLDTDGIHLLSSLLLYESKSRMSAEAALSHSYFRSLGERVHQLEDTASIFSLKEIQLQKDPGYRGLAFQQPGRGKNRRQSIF
Sequence of D(2) dopamine receptor (P14416 whole entry): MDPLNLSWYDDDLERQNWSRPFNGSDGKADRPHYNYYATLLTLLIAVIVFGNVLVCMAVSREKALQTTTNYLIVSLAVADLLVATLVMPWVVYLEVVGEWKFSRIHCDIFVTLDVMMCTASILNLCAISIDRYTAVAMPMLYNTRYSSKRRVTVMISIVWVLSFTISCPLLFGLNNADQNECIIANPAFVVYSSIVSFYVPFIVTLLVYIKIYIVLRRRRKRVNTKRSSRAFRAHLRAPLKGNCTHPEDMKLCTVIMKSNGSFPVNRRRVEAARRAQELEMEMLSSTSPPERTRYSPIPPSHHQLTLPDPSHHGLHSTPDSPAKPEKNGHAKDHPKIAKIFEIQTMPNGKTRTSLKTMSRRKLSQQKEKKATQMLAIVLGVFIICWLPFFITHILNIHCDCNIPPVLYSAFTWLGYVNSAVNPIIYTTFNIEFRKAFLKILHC

Question: For `CCN(CC)CCCCNc1ncc2cc(-c3cc(OC)cc(OC)c3)c(NC(=O)NC(C)(C)C)nc2n1`, which % of control [1] is on record?
Answer: 100%

Question: With `COc1cc(Nc2nc(C)cc(-c3cnn4nc(OC)ccc34)n2)cc(C(F)(F)F)c1` as the compound, how does the % of control [2] read?
Answer: 100%

Question: Which pXC50 (D(2) dopamine receptor) does the source give for `COc1cc(C(=O)N2CC[C@@H](O)[C@@H](N)C2)cc2nc(-c3cc4ccccc4n3CC3CC3)n(C)c12` here?
Answer: 4.6 M

Question: With `C=CC(=O)Nc1cc(-n2c(=O)ccc3cnc4ccc(-c5ccc(NS(C)(=O)=O)cc5)cc4c32)ccc1C` as the compound, how does the % of control ([3]; at 1 µM) read?
Answer: 100%

Question: What about the % of control ([3]; at 10 µM) of the same compound?
Answer: 100%

Question: Which % of control [4] does the source give for `CCC(=O)N1CCN(c2ccc(-n3c(=O)ccc4cnc5ccc(-c6cnc7ccccc7c6)cc5c43)cc2C(F)(F)F)CC1` here?
Answer: 100%

Question: And the % of control [5]?
Answer: 75%

Question: With `O[C@H]1CC[C@H](Nc2ncc3nc(Nc4c(F)cc(F)cc4F)n([C@H]4CCOC4)c3n2)CC1` as the compound, how does the % of control [6] read?
Answer: 100%

Question: `N#Cc1cccc(-c2c[nH]c3ncnc(N4CCOCC4)c23)c1` was tested. Which % of inhibition [7] did it give?
Answer: 18%
